The results in this text go back to ChEMBL document CHEMBL1151877, “Examination of halogen substituent effects on HIV-1 integrase inhibitors derived from 2,3-dihydro-6,7-dihydroxy-1H-isoindol-1-ones and 4,5-dihydroxy-1H-isoindole-1,3(2H)-diones” (Bioorg Med Chem Lett, 2009).

The target in test [1] is T1, Human immunodeficiency virus type 1 integrase (Human immunodeficiency virus 1, UniProt Q7ZJM1). The test can be described thus: Inhibition of HIV1 integrase strand transfer activity in presence of magnesium.
T1 sequence (Q7ZJM1 whole entry): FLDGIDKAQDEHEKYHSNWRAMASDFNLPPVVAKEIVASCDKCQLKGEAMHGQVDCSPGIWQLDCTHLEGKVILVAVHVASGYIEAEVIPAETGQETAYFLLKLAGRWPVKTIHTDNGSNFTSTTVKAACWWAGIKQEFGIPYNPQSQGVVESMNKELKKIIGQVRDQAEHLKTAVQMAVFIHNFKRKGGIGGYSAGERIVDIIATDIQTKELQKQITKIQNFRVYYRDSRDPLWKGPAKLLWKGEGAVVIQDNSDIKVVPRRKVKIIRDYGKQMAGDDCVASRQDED
Test [2] deals with Human immunodeficiency virus 1. As to the kind of experiment: Antiviral activity against VSV-g-pseudotyped HIV1 assessed as inhibition of viral infection in human HOS cells pretreated for 3 hrs before viral infection by luciferase reporter gene assay. Format: functional, organism-based. The note with it: Human immunodeficiency virus 1, HOS.
The test system of the next test is HOS. The test can be described thus: Cytotoxicity against human HOS cells. Format: cell-based.
The target in test [3] is T1, Human immunodeficiency virus type 1 integrase. As to the kind of experiment: Inhibition of HIV1 integrase 3'-processing activity in presence of magnesium.
For test [4], the target named is Human immunodeficiency virus type 1 integrase (Human immunodeficiency virus 1) (UniProt Q7ZJM1). The test can be described thus: Selectivity ratio of IC50 for HIV1 integrase strand transfer activity to IC50 for HIV1 integrase 3'-processing activity.
Chain of Human immunodeficiency virus type 1 integrase (Human immunodeficiency virus 1) (Q7ZJM1 as listed by the source): as the sequence (Q7ZJM1 whole entry) above

Molecules are shown by their SMILES.

For `O=C1c2ccc(O)c(O)c2C(=O)N1Cc1cccc(Br)c1`, the values for the half-maximal inhibitory concentration (IC50) (in test [1]; with HOS; in test [3]) were 0.4 µM, 11.4 µM and 16 µM, respectively. Besides, in test [2], the EC50 amounted to 3.78 µM.

`O=C1c2c(ccc(O)c2O)CN1Cc1ccc(F)c(Cl)c1`: in test [2], the EC50 amounted to 0.48 µM. The compound also displayed an IC50 in the test on HOS of 6.87 µM.

In the case of `O=C1c2ccc(O)c(O)c2C(=O)N1Cc1cc(F)cc(F)c1`, the IC50 in test [1] was found to be 0.4 µM; in test [3], 48 µM.

With `O=C1c2ccc(O)c(O)c2C(=O)N1Cc1ccc(F)c(Br)c1`, the figures for the IC50 in test [1] and in test [3] were 0.9 µM and 11 µM, respectively.

On to `O=C1c2ccc(O)c(O)c2C(=O)N1Cc1cc(F)c(F)cc1F`, for which the results for the half-inhibitory concentration (IC50) in test [1] and in test [3] were 0.5 µM and 54 µM, respectively.

On to `O=C1c2c(ccc(O)c2O)CN1Cc1ccc(Cl)c(F)c1`, for which the values for the half-maximal inhibitory concentration (IC50) in test [1] and in test [3] were 6 µM and 97 µM, respectively.

For `O=C1c2c(ccc(O)c2O)CN1Cc1ccc(F)c(F)c1`, the figures for the IC50 (in test [1]; with HOS; in test [3]) were 0.9 µM, 9.01 µM and 72 µM, respectively. In test [2], the EC50 stood at 1.08 µM.

On to `O=C1c2ccc(O)c(O)c2C(=O)N1Cc1cc(F)c(F)c(F)c1`, for which the results for the IC50 in test [1] and in test [3] were 0.6 µM and 10 µM, respectively.

Take `O=C1c2c(ccc(O)c2O)CN1Cc1cccc(Br)c1`: the IC50 in test [1] came to 3 µM; with HOS, 7.24 µM; in test [3] it was 264 µM. Also, in test [2], the EC50 is 0.59 µM.

Turning to `O=C1c2c(ccc(O)c2O)CN1Cc1cccc(Cl)c1`, the IC50 in test [1] amounted to 4 µM; in the test on HOS it was 9.02 µM; in test [3], 72 µM. In test [2], the EC50 was 0.54 µM.

Take `O=C1c2c(ccc(O)c2O)CN1Cc1c(F)cccc1F`: the figures for the IC50 in test [1] and in test [3] were 20 µM and 71 µM, respectively.

As to `O=C1c2ccc(O)c(O)c2C(=O)N1Cc1cc(Cl)ccc1F`, the figures for the IC50 in test [1] and in test [3] were 0.31 µM and 9 µM, respectively.

As to `O=C1c2ccc(O)c(O)c2C(=O)N1Cc1c(F)cccc1Cl`, the IC50 in test [1] worked out at 3.5 µM; in test [3], 54 µM.

As for `O=C1c2c(ccc(O)c2O)CN1Cc1c(F)ccc(F)c1Cl`, the IC50 in test [1] is 8.9 µM; in test [3], above 333 µM.

As for `O=C1c2ccc(O)c(O)c2C(=O)N1Cc1cccc(F)c1`, the values for the IC50 in test [1] and in test [3] were 0.3 µM and 11 µM, respectively.

On to `O=C1c2c(ccc(O)c2O)CN1Cc1ccccc1F`, for which the IC50 in test [1] was 25 µM; in test [3], above 333 µM.

For the compound `O=C1c2ccc(O)c(O)c2C(=O)N1Cc1ccc(F)c(F)c1`, the IC50 in test [1] stood at 0.1 µM; in the test with HOS, 7.94 µM; in test [3], 27 µM. The EC50 in test [2] amounted to 5.88 µM.

As for `O=C1c2c(ccc(O)c2O)CN1Cc1cc(Cl)ccc1F`, the figures for the IC50 in test [1] and in test [3] were 1.2 µM and 18 µM, respectively.

Regarding `O=C1c2ccc(O)c(O)c2C(=O)N1Cc1cccc(Cl)c1`, the IC50 worked out at 0.4 µM in test [1], 13.3 µM with HOS and 14 µM in test [3]. Also, in test [2], the half-maximal effective concentration (EC50) was 4.2 µM.

As to `O=C1c2c(ccc(O)c2O)CN1Cc1cc(Cl)c(F)cc1F`, the IC50 is 4.4 µM in test [1], 8.38 µM with HOS and above 333 µM in test [3]. In addition, the EC50 in test [2] stood at 0.65 µM.

For the compound `O=C1c2c(ccc(O)c2O)CN1Cc1cc(F)ccc1F`, the IC50 in test [1] was 27 µM; with HOS it was 13.4 µM; in test [3], above 333 µM. The EC50 in test [2] is 1.24 µM.

Take `O=C1c2c(ccc(O)c2O)CN1Cc1ccc(Cl)c(Cl)c1`: the IC50 in test [1] is 0.1 µM; with HOS, 5.68 µM; in test [3], 89 µM. Moreover, the EC50 in test [2] was 3.3 µM.

For `O=C1c2ccc(O)c(O)c2C(=O)N1Cc1cccc(Cl)c1F`, the IC50 is 2 µM in test [1], 11.5 µM in the test with HOS and 25 µM in test [3]. Further, in test [2], the EC50 amounted to 2.74 µM.

`O=C1c2c(ccc(O)c2O)CN1Cc1cccc(I)c1`: the half-inhibitory concentration (IC50) in test [1] came out at 4 µM; in the test with HOS, 6.92 µM; in test [3], 169 µM. Also, the half-maximal effective concentration (EC50) in test [2] stood at 1.07 µM.

In the case of `O=C1c2c(ccc(O)c2O)CN1Cc1cccc(Cl)c1F`, the 50% inhibitory concentration (IC50) in test [1] was 2 µM; with HOS, 9.43 µM; in test [3], 36 µM. The EC50 in test [2] was 0.62 µM.

`O=C1c2ccc(O)c(O)c2C(=O)N1Cc1ccc(F)cc1Cl`: the IC50 in test [1] was 1.3 µM; in test [3] it was 90 µM.

In the case of `O=C1c2ccc(O)c(O)c2C(=O)N1Cc1ccc(Cl)c(Cl)c1`, the IC50 worked out at 0.12 µM in test [1], 4.43 µM in the test on HOS and 18 µM in test [3]. The EC50 in test [2] came to 2.33 µM.

With `O=C1c2c(ccc(O)c2O)CN1Cc1c(F)ccc(F)c1F`, the IC50 in test [1] is 25 µM; in test [3] it was above 333 µM.

`O=C1c2c(ccc(O)c2O)CN1Cc1ccc(F)c(Br)c1`: the IC50 was 1 µM in test [1] and 34 µM in test [3].

As to `O=C1c2ccc(O)c(O)c2C(=O)N1Cc1ccc(F)cc1`, the IC50 was found to be 5 µM in test [1] and 8 µM in test [3]. In addition, the concentration giving a half-maximal response (EC50) in test [2] was found to be 0.86 µM.

As to `O=C1c2ccc(O)c(O)c2C(=O)N1Cc1ccc(F)cc1F`, the IC50 in test [1] is 0.3 µM; in test [3], 16 µM.

As to `O=C1c2c(ccc(O)c2O)CN1Cc1c(F)cccc1Cl`, the figures for the IC50 in test [1] and in test [3] were 18 µM and above 333 µM, respectively.

In the case of `O=C1c2ccc(O)c(O)c2C(=O)N1Cc1c(F)ccc(F)c1Cl`, the 50% inhibitory concentration (IC50) in test [1] was found to be 4 µM; in test [3] it was 34 µM.

With `O=C1c2c(ccc(O)c2O)CN1Cc1cc(F)cc(F)c1`, the IC50 amounted to 0.3 µM in test [1], 17.2 µM with HOS and 233 µM in test [3]. Moreover, the EC50 in test [2] is 2.42 µM.

Take `O=C1c2c(ccc(O)c2O)CN1Cc1cc(F)c(F)c(F)c1`: the IC50 in test [1] turned out to be 4 µM; in test [3], 99 µM.

For the compound `O=C1c2c(ccc(O)c2O)CN1Cc1ccc(F)cc1F`, the IC50 in test [1] turned out to be 0.5 µM; in test [3], 37 µM.

For `Cc1cc(CN2C(=O)c3ccc(O)c(O)c3C2=O)ccc1F`, the IC50 in test [1] stood at 0.8 µM; in test [3], 11 µM.

Take `O=C1c2ccc(O)c(O)c2C(=O)N1Cc1ccc(Cl)c(F)c1`: the IC50 in test [1] was found to be 0.9 µM; in test [3] it was 58 µM.

As for `O=C1c2ccc(O)c(O)c2C(=O)N1Cc1c(F)ccc(F)c1F`, the IC50 in test [1] was determined as 1.8 µM; in test [3], 158 µM.

With `O=C1c2c(ccc(O)c2O)CN1Cc1ccc(F)cc1Cl`, the half-inhibitory concentration (IC50) in test [1] is 2.5 µM; in test [3] it was above 333 µM. Moreover, the Ratio IC50 in test [4] was determined as 700.

As for `O=C1c2c(ccc(O)c2O)CN1Cc1ccc(F)c(F)c1F`, the IC50 in test [1] worked out at 2.7 µM; in test [3] it was 153 µM.

Regarding `O=C1c2ccc(O)c(O)c2C(=O)N1Cc1c(F)c(F)c(F)c(F)c1F`, the IC50 in test [1] was 1.3 µM; in test [3], 41 µM.

Consider `O=C1c2c(ccc(O)c2O)CN1Cc1cccc(F)c1F`, for which the results for the IC50 in test [1] and in test [3] were 0.7 µM and 72 µM, respectively.

Consider `O=C1c2ccc(O)c(O)c2C(=O)N1Cc1cccc(I)c1`, for which the figures for the IC50 (in test [1]; in the test on HOS; in test [3]) were 1 µM, 12 µM and 85 µM, respectively. The EC50 in test [2] was 7.77 µM.

Turning to `O=C1c2ccc(O)c(O)c2C(=O)N1Cc1ccc(F)c(Cl)c1`, the figures for the concentration for half-maximal inhibition (IC50) (in test [1]; with HOS; in test [3]) were 0.17 µM, 9.54 µM and 14 µM, respectively. In addition, the EC50 in test [2] came to 2.83 µM.

As to `O=C1c2ccc(O)c(O)c2C(=O)N1Cc1ccccc1F`, the results for the concentration for half-maximal inhibition (IC50) in test [1] and in test [3] were 2 µM and 68 µM, respectively.

`O=C1c2ccc(O)c(O)c2C(=O)N1Cc1ccc(F)c(F)c1F`: the IC50 came out at 0.8 µM in test [1] and 18 µM in test [3].

With `Cc1cc(CN2Cc3ccc(O)c(O)c3C2=O)ccc1F`, the IC50 amounted to 0.9 µM in test [1] and 17 µM in test [3].

Consider `O=C1c2ccc(O)c(O)c2C(=O)N1Cc1cc(F)ccc1F`, for which the IC50 was found to be 0.23 µM in test [1] and 60 µM in test [3].

On to `O=C1c2c(ccc(O)c2O)CN1Cc1cc(F)c(F)cc1F`, for which the IC50 in test [1] is 3.7 µM; in test [3] it was above 333 µM.

`O=C1c2ccc(O)c(O)c2C(=O)N1Cc1cc(Cl)c(F)cc1F`: the figures for the IC50 (in test [1]; in the test on HOS; in test [3]) were 0.4 µM, 13.7 µM and 79 µM, respectively. The 50% effective concentration (EC50) in test [2] was determined as 4.43 µM.

`O=C1c2c(ccc(O)c2O)CN1Cc1cccc(F)c1`: the IC50 was found to be 21 µM in test [1], 8.6 µM in the test on HOS and 238 µM in test [3]. Further, the EC50 in test [2] is 1.06 µM.

In the case of `O=C1c2c(ccc(O)c2O)CN1Cc1c(F)c(F)c(F)c(F)c1F`, the IC50 in test [1] amounted to 8 µM; in test [3], 230 µM.

On to `O=C1c2ccc(O)c(O)c2C(=O)N1Cc1ccccc1`, for which the IC50 was 0.4 µM in test [1] and 72 µM in test [3]. Moreover, the EC50 in test [2] worked out at 11.2 µM.

In the case of `O=C1c2ccc(O)c(O)c2C(=O)N1Cc1c(F)cccc1F`, the IC50 in test [1] turned out to be 2 µM; in test [3] it was 103 µM.

The term IC50 denotes the concentration at which inhibition is half-maximal. By EC50 is commonly meant the concentration needed to bring the measured effect to its halfway point.
